According to ChEMBL document CHEMBL4428102, “Discovery of an Orally Bioavailable Gonadotropin-Releasing Hormone Receptor Antagonist” (J Med Chem, 2016):
Active and inactive are the calls of the source. The rule behind the calls is not given here.

Legend:
[1] = biological target: T1, Gonadotropin-releasing hormone receptor (Homo sapiens, UniProt P30968); assay: Displacement of [125I]D-Trp6-LHRH from human GnRH receptor expressed in CHO-K1 cell membranes incubated for 1 hr by competitive binding assay
T1 sequence (P30968 whole entry): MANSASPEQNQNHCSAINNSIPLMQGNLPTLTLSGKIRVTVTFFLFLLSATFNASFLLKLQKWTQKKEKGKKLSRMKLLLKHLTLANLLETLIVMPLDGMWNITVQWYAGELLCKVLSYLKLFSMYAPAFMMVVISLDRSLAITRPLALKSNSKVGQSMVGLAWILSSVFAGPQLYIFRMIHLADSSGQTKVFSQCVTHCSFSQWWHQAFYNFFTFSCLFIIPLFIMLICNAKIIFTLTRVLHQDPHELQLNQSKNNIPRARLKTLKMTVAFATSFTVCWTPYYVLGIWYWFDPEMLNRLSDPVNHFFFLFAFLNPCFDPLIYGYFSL

[2] = biological target: T1, Gonadotropin-releasing hormone receptor; assay: Antagonist activity against human GnRH receptor expressed in HEK293 cells co-transfected with pGL4-NFAT promoter AP1-luc assessed as inhibition of 20 nM GnRH-induced NFAT activation pre-incubated for 1 hr before GnRH stimulation and measured after 6 hrs by luciferase reporter gene assay; type: cell-based
[3] = biological target: CYP3A4 (Homo sapiens, UniProt P08684); assay: Inhibition of human recombinant CYP3A4 expressed in baculosomes at 10 uM incubated for 30 mins using BOMR substrate by fluorescence based assay; type: ADME; settings: probe BOMR
[4] = Selectivity index, ratio of IC50 for antagonist activity against monkey GnRH receptor expressed in HEK293 cells to IC50 for antagonist activity against human GnRH receptor expressed in HEK293 cells; type: cell-based
[5] = Selectivity index, ratio of IC50 for antagonist activity against rat GnRH receptor expressed in HEK293 cells to IC50 for antagonist activity against human GnRH receptor expressed in HEK293 cells; type: cell-based
[6] = tested on: Cynomolgus monkey; assay: Reduction in serum LH level in castrated male cynomolgus monkey at 30 mg/kg, po administered as single dose after 12 to 24 hrs by RIA method; type: functional, organism-based; settings: Macaca fascicularis
[7] = biological target: T2, Gonadotropin-releasing hormone receptor (Macaca mulatta, UniProt Q8SPZ1); assay: Displacement of [125I]D-Trp6-LHRH from monkey GnRH receptor expressed in HEK293 cell membranes incubated for 1 hr by competitive binding assay
T2 sequence (Q8SPZ1 whole entry): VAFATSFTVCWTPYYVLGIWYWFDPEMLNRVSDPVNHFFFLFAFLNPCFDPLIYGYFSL

[8] = biological target: T3, Gonadotropin-releasing hormone receptor (Rattus norvegicus, UniProt P30969); assay: Displacement of [125I]D-Trp6-LHRH from rat GnRH receptor expressed in HEK293 cell membranes incubated for 1 hr by competitive binding assay
T3 sequence (P30969 whole entry): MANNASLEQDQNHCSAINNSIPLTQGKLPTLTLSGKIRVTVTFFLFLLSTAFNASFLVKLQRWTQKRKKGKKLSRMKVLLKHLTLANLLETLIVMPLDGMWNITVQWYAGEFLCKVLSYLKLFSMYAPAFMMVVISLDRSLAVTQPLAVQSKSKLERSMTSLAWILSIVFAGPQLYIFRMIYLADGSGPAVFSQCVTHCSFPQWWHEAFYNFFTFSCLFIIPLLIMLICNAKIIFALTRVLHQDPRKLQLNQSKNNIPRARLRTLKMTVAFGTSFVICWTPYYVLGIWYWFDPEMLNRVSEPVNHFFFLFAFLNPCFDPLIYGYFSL

[9] = biological target: T1, Gonadotropin-releasing hormone receptor; assay: Antagonist activity against human GnRH receptor expressed in HEK293 cells co-transfected with pGL4-NFAT promoter AP1-luc assessed as inhibition of 1 nM GnRH-induced NFAT activation pre-incubated for 1 hr before GnRH stimulation and measured after 6 hrs by luciferase reporter gene assay; type: cell-based
[10] = biological target: T2, Gonadotropin-releasing hormone receptor; assay: Antagonist activity against monkey GnRH receptor expressed in HEK293 cells co-transfected with pGL4-NFAT promoter AP1-luc assessed as inhibition of 10 nM GnRH-induced NFAT activation pre-incubated for 1 hr before GnRH stimulation and measured after 6 hrs by luciferase reporter gene assay; type: cell-based
[11] = biological target: T3, Gonadotropin-releasing hormone receptor; assay: Antagonist activity against rat GnRH receptor expressed in HEK293 cells co-transfected with pGL4-NFAT promoter AP1-luc assessed as inhibition of 1 nM GnRH-induced NFAT activation pre-incubated for 1 hr before GnRH stimulation and measured after 6 hrs by luciferase reporter gene assay; type: cell-based
[12] = biological target: T1, Gonadotropin-releasing hormone receptor; assay: Antagonist activity against human GnRH receptor expressed in HEK293 cells assessed as reduction in ERK1/2 phosphorylation pre-incubated for 5 mins before LHRH stimulation for 5 mins by chemiluminescence based assay; type: cell-based
[13] = biological target: T1, Gonadotropin-releasing hormone receptor; assay: Antagonist activity against human GnRH receptor expressed in […] assessed as inhibition of LHRH-induced calcium flux by FLIPR assay; type: functional, cell-based

CYP3A4, sequence (P08684 whole entry): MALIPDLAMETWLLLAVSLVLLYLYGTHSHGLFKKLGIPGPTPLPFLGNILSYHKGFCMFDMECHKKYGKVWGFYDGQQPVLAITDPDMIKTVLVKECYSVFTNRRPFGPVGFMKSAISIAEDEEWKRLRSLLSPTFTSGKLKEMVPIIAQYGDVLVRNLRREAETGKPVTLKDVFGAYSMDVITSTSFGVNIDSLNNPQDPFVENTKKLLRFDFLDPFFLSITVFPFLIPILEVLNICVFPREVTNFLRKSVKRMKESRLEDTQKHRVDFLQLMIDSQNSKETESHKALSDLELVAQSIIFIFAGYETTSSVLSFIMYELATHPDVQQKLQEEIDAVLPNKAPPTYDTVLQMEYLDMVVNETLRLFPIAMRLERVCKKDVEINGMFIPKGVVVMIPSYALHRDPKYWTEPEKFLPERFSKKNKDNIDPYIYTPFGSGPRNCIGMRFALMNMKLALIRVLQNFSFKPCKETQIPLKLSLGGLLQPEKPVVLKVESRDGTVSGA

SMILES	IC50 [1] [µM]	IC50 [2] [µM]	inhibition at 0.5 h, 10 µM [3] [%]	further results
Cc1c(N2CCN(Cc3cccc(C(=O)NCCC(=O)O)c3)CC2)c(=O)n(C[C@H](N)c2ccccc2)c(=O)n1Cc1c(F)cccc1C(F)(F)F	0.0012	0.146	72	
Cc1c(N2CCN(Cc3cccc([N+](=O)[O-])c3)CC2)c(=O)n(C[C@H](N)c2ccccc2)c(=O)n1Cc1c(F)cccc1C(F)(F)F	0.00045	0.102 to 0.155	89	
Cc1c(N2CCN(Cc3cccc([N+](=O)[O-])c3)CC2)c(=O)n(C[C@H](N)c2ccccc2OCCCC(=O)O)c(=O)n1Cc1c(F)cccc1C(F)(F)F	0.00014	0.0269	57	
Cc1c(N2CCN(Cc3cccc(C(=O)NCCCC(=O)O)c3)CC2)c(=O)n(C[C@H](N)c2ccccc2)c(=O)n1Cc1c(F)cccc1C(F)(F)F	0.0011	0.376	66	
Cc1c(N2CCN(Cc3ccc(C(F)(F)F)o3)CC2)c(=O)n(C[C@H](NCCCP(=O)(O)O)c2ccccc2)c(=O)n1Cc1c(F)cccc1C(F)(F)F	0.0012	0.411	16	
Cc1c(N2CCN(Cc3cccc([N+](=O)[O-])c3)CC2)c(=O)n(C[C@H](N)c2ccccc2OCC(=O)O)c(=O)n1Cc1c(F)cccc1C(F)(F)F	0.00023	0.0277	30	
Cc1c(N2CCN(Cc3ccc(C(F)(F)F)o3)CC2)c(=O)n(C[C@H](NCCCC(=O)O)c2ccccc2)c(=O)n1Cc1c(F)cccc1C(F)(F)F [listing 1 of 2 here]				Ratio IC50 [4]: 2; Ratio IC50 [5]: 44; inhibition [6]: Active
Cc1c(N2CCN(Cc3cccc(C(F)(F)F)c3)CC2)c(=O)n(C[C@H](N)c2ccccc2)c(=O)n1Cc1c(F)cccc1C(F)(F)F	0.00033 to 0.00052	0.0279	96	
Cc1c(N2CCN(Cc3cccnc3)CC2)c(=O)n(C[C@H](N)c2ccccc2)c(=O)n1Cc1c(F)cccc1C(F)(F)F	0.002	0.29		
Cc1c(N2CCN(Cc3ccon3)CC2)c(=O)n(C[C@H](N)c2ccccc2)c(=O)n1Cc1c(F)cccc1C(F)(F)F	0.0141	> 1		
Cc1c(N2CCN(Cc3cncs3)CC2)c(=O)n(C[C@H](N)c2ccccc2)c(=O)n1Cc1c(F)cccc1C(F)(F)F	0.00894	0.93		
Cc1ccc(CN2CCN(c3c(C)n(Cc4c(F)cccc4C(F)(F)F)c(=O)n(C[C@H](N)c4ccccc4)c3=O)CC2)cn1	0.0142	1.69		
Cc1c(N2CCN(Cc3cccc(C#N)c3)CC2)c(=O)n(C[C@H](N)c2ccccc2)c(=O)n1Cc1c(F)cccc1C(F)(F)F	0.00041	0.213		
Cc1c(N2CCN(Cc3ccc(Cl)o3)CC2)c(=O)n(C[C@H](N)c2ccccc2)c(=O)n1Cc1c(F)cccc1C(F)(F)F	0.00039	0.178		
Cc1c(N2CCN(Cc3cccc(C(F)(F)F)c3)CC2)c(=O)n(C[C@H](NCCCC(=O)O)c2ccccc2)c(=O)n1Cc1c(F)cccc1C(F)(F)F	0.00068	0.0495	22	
CC(=O)c1cccc(CN2CCN(c3c(C)n(Cc4c(F)cccc4C(F)(F)F)c(=O)n(C[C@H](N)c4ccccc4)c3=O)CC2)c1	0.00016	0.0165		

SMILES	IC50 [1] [µM]	IC50 [2] [µM]	inhibition at 0.5 h, 10 µM [3] [%]	further results
COC(=O)c1ccc(CN2CCN(c3c(C)n(Cc4c(F)cccc4C(F)(F)F)c(=O)n(C[C@H](N)c4ccccc4)c3=O)CC2)o1	0.00031	0.064		
Cc1c(N2CCN(Cc3ccc(C(F)(F)F)o3)CC2)c(=O)n(C[C@H](NCCCC(=O)O)c2ccccc2)c(=O)n1Cc1c(F)cccc1C(F)(F)F [listing 2 of 2 here]	0.00044 to 0.00046	0.013	21	IC50 [7]: 0.0037 µM; IC50 [8]: 0.52 µM; IC50 [9]: 0.00632 µM; IC50 [10]: 0.0132 µM; IC50 [11]: 0.279 µM; IC50 [12]: 0.0029 µM; IC50 [13]: 0.00076 µM
Cc1c(N2CCN(Cc3cccc(OC(F)(F)F)c3)CC2)c(=O)n(C[C@H](N)c2ccccc2)c(=O)n1Cc1c(F)cccc1C(F)(F)F	0.001	0.25		
Cc1cc(CN2CCN(c3c(C)n(Cc4c(F)cccc4C(F)(F)F)c(=O)n(C[C@H](N)c4ccccc4)c3=O)CC2)c(C(F)(F)F)o1	> 0.1	> 1		
CCOP(=O)(O)CCCN[C@@H](Cn1c(=O)c(N2CCN(Cc3ccc(C(F)(F)F)o3)CC2)c(C)n(Cc2c(F)cccc2C(F)(F)F)c1=O)c1ccccc1	0.0018	0.184	45	
Cc1ncccc1CN1CCN(c2c(C)n(Cc3c(F)cccc3C(F)(F)F)c(=O)n(C[C@H](N)c3ccccc3)c2=O)CC1	0.00511	0.543		
Cc1c(N2CCN(Cc3ccccc3C#N)CC2)c(=O)n(C[C@H](N)c2ccccc2)c(=O)n1Cc1c(F)cccc1C(F)(F)F	0.00032	0.351		
Cc1c(N2CCN(Cc3ccc(C(F)(F)F)o3)CC2)c(=O)n(C[C@H](NCCCS(=O)(=O)O)c2ccccc2)c(=O)n1Cc1c(F)cccc1C(F)(F)F	0.0011	0.122	45	
Cc1c(N2CCN(Cc3cccc([N+](=O)[O-])c3)CC2)c(=O)n(C[C@H](NCCCC(=O)O)c2ccccc2)c(=O)n1Cc1c(F)cccc1C(F)(F)F	0.00142	0.06	17	
Cc1c(N2CCN(Cc3cocn3)CC2)c(=O)n(C[C@H](N)c2ccccc2)c(=O)n1Cc1c(F)cccc1C(F)(F)F	0.00701	> 1		
Cc1c(N2CCN(Cc3nccs3)CC2)c(=O)n(C[C@H](N)c2ccccc2)c(=O)n1Cc1c(F)cccc1C(F)(F)F	0.0177	1.66		
Cc1c(N2CCN(Cc3cccc(C(N)=O)c3)CC2)c(=O)n(C[C@H](N)c2ccccc2)c(=O)n1Cc1c(F)cccc1C(F)(F)F	0.00195	0.0865	93	
Cc1c(N2CCN(Cc3ccc(C(F)(F)F)o3)CC2)c(=O)n(C[C@H](N)c2ccccc2)c(=O)n1Cc1c(F)cccc1C(F)(F)F	0.00095	0.0126	96	
Cc1c(N2CCN(Cc3cccc([N+](=O)[O-])c3)CC2)c(=O)n(C[C@H](N)c2ccccc2O)c(=O)n1Cc1c(F)cccc1C(F)(F)F	0.00017	0.0893	97	
Cc1c(N2CCN(Cc3cccc(C(=O)NCC(=O)O)c3)CC2)c(=O)n(C[C@H](N)c2ccccc2)c(=O)n1Cc1c(F)cccc1C(F)(F)F	> 0.01	> 0.3	74	
Cc1c(N2CCN(Cc3cccnc3Cl)CC2)c(=O)n(C[C@H](N)c2ccccc2)c(=O)n1Cc1c(F)cccc1C(F)(F)F	0.00257	0.526		
